This note sets out measurements from ChEMBL document CHEMBL4196083, “Discovery of meta-sulfamoyl N-hydroxybenzamides as HDAC8 selective inhibitors” (Eur J Med Chem, 2018).

Series [1] deals with Histone deacetylase (HDAC1 and HDAC2) (Homo sapiens, UniProt Q13547+Q92769). Description: Inhibition of HDAC1/2 in human HeLa nuclear extract using Boc-Lys(acetyl)-AMC as substrate preincubated for 5 mins followed by substrate addition measured after 30 mins by fluorescence assay. In kind it is ADME, protein assay.
The next series has as its system PC-3. Description: Antiproliferative activity against human PC3 cells after 48 hrs by MTT assay. The class given is functional, cell-based. Conditions: PC-3, 48 h; call rule not given here.
For series [2], the target named is T1, Protein deacetylase HDAC6 (Homo sapiens, UniProt Q9UBN7).
T1 sequence (Q9UBN7 whole entry): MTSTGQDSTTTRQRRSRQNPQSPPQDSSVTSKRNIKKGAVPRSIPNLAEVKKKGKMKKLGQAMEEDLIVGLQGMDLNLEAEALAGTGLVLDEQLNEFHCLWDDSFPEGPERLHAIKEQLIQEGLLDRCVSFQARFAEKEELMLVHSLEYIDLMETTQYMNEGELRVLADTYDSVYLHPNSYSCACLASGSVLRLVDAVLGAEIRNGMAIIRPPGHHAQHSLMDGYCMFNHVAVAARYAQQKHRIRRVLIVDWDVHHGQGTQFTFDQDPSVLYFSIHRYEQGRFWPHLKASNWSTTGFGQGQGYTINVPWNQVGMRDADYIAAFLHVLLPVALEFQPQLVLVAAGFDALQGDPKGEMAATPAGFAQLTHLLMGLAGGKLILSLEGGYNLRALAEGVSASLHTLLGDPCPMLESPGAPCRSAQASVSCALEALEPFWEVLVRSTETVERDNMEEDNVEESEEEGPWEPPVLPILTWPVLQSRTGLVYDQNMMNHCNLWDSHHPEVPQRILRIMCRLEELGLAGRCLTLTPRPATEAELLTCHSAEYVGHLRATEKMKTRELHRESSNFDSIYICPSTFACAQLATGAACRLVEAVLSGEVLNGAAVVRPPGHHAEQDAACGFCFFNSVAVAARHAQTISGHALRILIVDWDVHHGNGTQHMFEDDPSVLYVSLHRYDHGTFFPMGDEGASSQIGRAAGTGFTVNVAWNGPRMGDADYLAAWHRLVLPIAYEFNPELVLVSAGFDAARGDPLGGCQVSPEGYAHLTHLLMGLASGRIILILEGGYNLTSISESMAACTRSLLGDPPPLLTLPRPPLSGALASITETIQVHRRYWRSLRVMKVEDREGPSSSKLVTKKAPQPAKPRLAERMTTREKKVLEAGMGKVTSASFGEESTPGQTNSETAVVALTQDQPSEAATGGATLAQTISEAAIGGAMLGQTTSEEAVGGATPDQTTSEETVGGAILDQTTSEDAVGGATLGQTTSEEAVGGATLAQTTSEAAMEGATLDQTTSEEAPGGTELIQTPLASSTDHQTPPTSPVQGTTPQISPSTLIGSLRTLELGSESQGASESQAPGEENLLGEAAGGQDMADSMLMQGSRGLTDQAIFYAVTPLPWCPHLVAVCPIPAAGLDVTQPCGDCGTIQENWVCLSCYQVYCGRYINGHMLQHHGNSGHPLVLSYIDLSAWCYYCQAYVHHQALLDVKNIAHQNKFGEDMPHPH
Description: Inhibition of HDAC6 (unknown origin) using Boc-Lys(acetyl)-AMC as substrate preincubated for 5 mins followed by substrate addition measured after 30 mins by fluorescence assay.

Another series deals with Jurkat. Briefly: Antiproliferative activity against human Jurkat cells after 48 hrs by MTT assay. In kind it is functional, cell-based.
The next series deals with T2, Histone deacetylase 8 (Homo sapiens, UniProt Q9BY41).
T2 sequence (Q9BY41 whole entry): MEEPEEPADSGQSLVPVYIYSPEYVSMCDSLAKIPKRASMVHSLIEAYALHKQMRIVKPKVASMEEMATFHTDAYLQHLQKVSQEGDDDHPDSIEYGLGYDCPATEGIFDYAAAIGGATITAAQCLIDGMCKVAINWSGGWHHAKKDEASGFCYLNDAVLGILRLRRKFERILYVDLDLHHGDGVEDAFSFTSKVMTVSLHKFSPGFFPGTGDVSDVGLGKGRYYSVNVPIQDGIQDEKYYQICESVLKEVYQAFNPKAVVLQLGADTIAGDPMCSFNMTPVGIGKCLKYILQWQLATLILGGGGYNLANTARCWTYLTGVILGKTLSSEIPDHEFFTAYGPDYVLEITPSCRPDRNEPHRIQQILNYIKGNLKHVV
Briefly: Inhibition of HDAC8 (unknown origin) using Boc-Lys(trifluoroacetyl)-AMC as substrate preincubated for 5 mins followed by substrate addition measured after 30 mins by fluorescence assay.

Series [3] concerns the target Histone deacetylase 1/2/3 (Homo sapiens, UniProt Q13547+O15379+Q92769). Briefly: Inhibition of HDAC1/2/3 in human HeLa cells assessed as increase in acetyl-histone H4 level at 2 uM after 12 hrs by Western blot analysis. (In general: A western blot detects proteins with antibodies after separation by electrophoresis.)
A further series concerns MOLT-4. Briefly: Antiproliferative activity against human MOLT4 cells after 48 hrs by MTT assay. The class given is functional, cell-based. To be noted: MOLT-4, 48 h. (Formazan colour is commonly taken as a measure of viable cells.)
The species entered for series [4] is Homo sapiens. Description: Selectivity ratio of IC50 for HDAC6 (unknown origin) to IC50 for HDAC8 (unknown origin).
In another series the test system is HEL. Briefly: Antiproliferative activity against human HEL cells after 48 hrs by MTT assay. In kind it is functional, cell-based.
A short description of series [5]: Antiproliferative activity against human SK-N-BE(2) cells after 48 hrs by MTT assay. To be noted: SKNBE2, 48 h. In kind it is functional, cell-based.
For series [6], the species on record is Homo sapiens. Description: Selectivity ratio of IC50 for HDAC2 (unknown origin) to IC50 for HDAC8 (unknown origin).
In a further series the test system is K562. Briefly: Antiproliferative activity against human K562 cells after 48 hrs by MTT assay. To be noted: K562, 48 h. The class given is functional, cell-based.
Series [7] concerns the target T1, Protein deacetylase HDAC6. Description: Inhibition of HDAC6 in human HeLa cells assessed as increase in acetyl-tubulin level at 2 uM after 12 hrs by Western blot analysis. In kind it is cell-based.
A further series deals with HeLa. Description: Antiproliferative activity against human HeLa cells after 48 hrs by MTT assay. In kind it is functional, cell-based.
In the next series the target is Histone deacetylase 2 (Homo sapiens, UniProt Q92769). Description: Inhibition of HDAC2 (unknown origin) using Boc-Lys(acetyl)-AMC as substrate preincubated for 5 mins followed by substrate addition measured after 30 mins by fluorescence assay. The class given is ADME.
Chain of Histone deacetylase 2 (Q92769 whole entry): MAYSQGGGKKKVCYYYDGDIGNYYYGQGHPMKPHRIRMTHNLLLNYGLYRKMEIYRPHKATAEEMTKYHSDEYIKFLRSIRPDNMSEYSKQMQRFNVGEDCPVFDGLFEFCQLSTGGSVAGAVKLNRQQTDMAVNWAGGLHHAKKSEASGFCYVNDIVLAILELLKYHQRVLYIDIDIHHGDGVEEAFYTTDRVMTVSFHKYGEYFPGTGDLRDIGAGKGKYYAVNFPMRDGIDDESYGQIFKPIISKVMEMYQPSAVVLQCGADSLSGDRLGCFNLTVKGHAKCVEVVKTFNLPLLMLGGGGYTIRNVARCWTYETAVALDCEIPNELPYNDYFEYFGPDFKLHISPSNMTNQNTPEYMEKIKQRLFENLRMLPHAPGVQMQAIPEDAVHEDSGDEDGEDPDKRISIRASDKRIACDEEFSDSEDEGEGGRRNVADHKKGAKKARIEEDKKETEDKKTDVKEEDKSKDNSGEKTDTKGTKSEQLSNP

Turning to `O=C(NO)c1cccc(S(=O)(=O)N[C@@H](Cc2c[nH]c3ccccc23)C(=O)Nc2ccc(F)cc2)c1`, in series [1], the 50% inhibitory concentration (IC50) was above 20 µM.

For `O=C(NO)c1cccc(S(=O)(=O)NCCc2ccccc2)c1`, the half-maximal inhibitory concentration (IC50) in the series with PC-3 is above 50 µM; in series [2], 1.8 µM; with Jurkat, 7.9 µM; against Histone deacetylase 8, 0.06 µM; with MOLT-4, 6.2 µM; in the series on HEL, 32.8 µM. In addition, the IC50 in [5] was 25.5 µM; in the series on K562, above 50 µM; in [1], above 20 µM; with HeLa, above 50 µM; against Histone deacetylase 2 it was 11.2 µM. In [3], the INH result is “Not Active”. Besides, the Ratio IC50 in the series listed under Homo sapiens [4] was 30; in the series listed under Homo sapiens [6], above 180. Further, in [7], the “inhibition (INH)” value is reported as “Not Active”.

On to `COc1ccc(NC(=O)[C@@H](NS(=O)(=O)c2cccc(C(=O)NO)c2)c2ccccc2)cc1`, for which the IC50 in series [1] was above 20 µM.

Take `CC(C)[C@H](NS(=O)(=O)c1cccc(C(=O)NO)c1)C(=O)Nc1ccccc1`: the 50% inhibitory concentration (IC50) is 40.5 µM in [2], 33.9 µM against Histone deacetylase 8, above 20 µM in series [1] and above 100 µM against Histone deacetylase 2.

In the case of `COc1ccc(NC(=O)[C@H](Cc2c[nH]c3ccccc23)NS(=O)(=O)c2cccc(C(=O)NO)c2)cc1`, the half-maximal inhibitory concentration (IC50) in series [1] is above 20 µM.

The molecule `O=C(NO)c1cccc(S(=O)(=O)N[C@@H](Cc2c[nH]c3ccccc23)C(=O)Nc2ccc(Cl)cc2)c1` showed an IC50 in series [1] above 20 µM.

Regarding `O=C(NO)c1cccc(S(=O)(=O)Nc2ccccc2)c1`, the IC50 was above 50 µM with PC-3; 1.5 µM in series [2]; 28.4 µM in the series on Jurkat; 0.05 µM against Histone deacetylase 8; 22.6 µM with MOLT-4; above 50 µM in the series on HEL. Besides, the IC50 is above 50 µM in the series with K562, above 20 µM in [1], above 50 µM in the series with HeLa and 14.5 µM against Histone deacetylase 2. In addition, the INH result in series [3] is given as “Not Active”. In addition, the figures for the Ratio IC50 in the series filed under Homo sapiens [4] and in the series listed under Homo sapiens [6] were 30 and above 180, respectively. The “inhibition (INH)” value in series [7] is given as “Not Active”.

As to `O=C(NO)c1cccc(S(=O)(=O)N[C@@H](Cc2c[nH]c3ccccc23)C(=O)NCc2ccccc2)c1`, the IC50 is 24.5 µM in series [2], 19 µM against Histone deacetylase 8, above 20 µM in series [1] and above 100 µM on Histone deacetylase 2.

Turning to `O=C(NO)c1cccc(S(=O)(=O)N[C@H](C(=O)Nc2ccc(F)cc2)c2ccccc2)c1`, in series [1], the IC50 is above 20 µM.

On to `C[C@H](NS(=O)(=O)c1cccc(C(=O)NO)c1)C(=O)Nc1ccccc1`, for which the 50% inhibitory concentration (IC50) in series [2] is 27.7 µM; on Histone deacetylase 8, 24.2 µM; in series [1] it was above 20 µM; at Histone deacetylase 2, above 100 µM.

Turning to `CN1CCc2c(c3ccccc3n2Cc2ccc(C(=O)NO)cc2)C1` [TUBASTATIN A], the “inhibition (INH)” value in [7] is reported as “Active”.

Consider `O=C(NO)c1cccc(S(=O)(=O)NCc2ccccc2)c1`, for which the concentration for half-maximal inhibition (IC50) in the series with PC-3 was above 50 µM; in [2] it was 2.6 µM; in the series with Jurkat, 12.2 µM; on Histone deacetylase 8 it was 0.08 µM; in the series on MOLT-4, 11.1 µM; in the series on HEL it was above 50 µM. Moreover, the half-inhibitory concentration (IC50) is 36.2 µM in series [5]; above 50 µM in the series with K562; above 20 µM in series [1]; above 50 µM in the series on HeLa; 47.1 µM on Histone deacetylase 2. Further, the INH entry in series [3] is “Not Active”. Besides, the Ratio IC50 in the series filed under Homo sapiens [4] was 30; in the series listed under Homo sapiens [6], above 180. Besides, the “inhibition (INH)” value in series [7] is on record as “Not Active”.

On to `O=C(CCCCCCC(=O)Nc1ccccc1)NO` [VORINOSTAT], for which the “inhibition (INH)” value in series [7] is listed as “Active”.

`O=C(/C=C/c1cccc(S(=O)(=O)Nc2ccccc2)c1)NO` [BELINOSTAT]: the half-inhibitory concentration (IC50) in the series on Jurkat amounted to 0.07 µM; in the series with MOLT-4 it was 0.14 µM; in the series on HEL, 0.1 µM; in series [5], 0.31 µM; in the series with HeLa it was 0.51 µM.

With `O=C(CNS(=O)(=O)c1cccc(C(=O)NO)c1)Nc1ccccc1`, the IC50 is 14.1 µM in [2], 3.5 µM against Histone deacetylase 8, above 20 µM in [1] and above 100 µM against Histone deacetylase 2.

As to `O=C(NO)c1cccc(S(=O)(=O)N[C@@H](Cc2c[nH]c3ccccc23)C(=O)Nc2ccccc2)c1`, the IC50 in series [2] is 5.9 µM; at Histone deacetylase 8 it was 3 µM; in series [1], above 20 µM; on Histone deacetylase 2, 70.4 µM.

Regarding `O=C(NO)c1cccc(S(=O)(=O)N[C@H](C(=O)Nc2ccccc2)c2ccccc2)c1`, the IC50 in [2] was 6.7 µM; at Histone deacetylase 8, 0.91 µM; in series [1], above 20 µM; against Histone deacetylase 2, above 100 µM.

Regarding `O=C(NO)c1cccc(S(=O)(=O)N[C@H](C(=O)NCc2ccccc2)c2ccccc2)c1`, the 50% inhibitory concentration (IC50) is 34 µM in series [2], 9.2 µM at Histone deacetylase 8, above 20 µM in series [1] and above 100 µM against Histone deacetylase 2.

On to `COc1ccc(Cn2ccc3ccc(C(=O)NO)cc32)cc1`, for which the concentration for half-maximal inhibition (IC50) with PC-3 is 19.2 µM; in the series on Jurkat it was 4.5 µM; in the series on MOLT-4 it was 9.4 µM; in the series on HEL it was 10.8 µM; in series [5], 16.9 µM; in the series with K562, above 25 µM. In addition, in the series with HeLa, the half-inhibitory concentration (IC50) was above 25 µM.

With `O=C(NO)c1cccc(S(=O)(=O)N[C@H](C(=O)Nc2ccc(Cl)cc2)c2ccccc2)c1`, the IC50 in series [1] was above 20 µM.

For orientation: IC50 means the concentration needed to halve the response being measured. A high value points to a need for much substance.
